How the values were obtained:
Type in all cases: cell-based
Details in all cases: after 10, 20, 40 and 60 minutes at all dilutions 1:100, 1:200, 1:400, 1:800
Staphylococcus aureus = assay: antimicrobial screening by agar dilution, St. aureus
Procedure: (§1) The antimicrobial properties of the 4,5-bis(4-bromophenyl)-1-hexyl-2-(3,4-dimethoxyphenyl)-1H-imidazole was studied by the method of agar dilution. Test solutions of each compound was prepared in concentration of 1% using dimethylformamide as a solvent then they were diluted in physiological solution to obtain the final experimental dilutions 1: 100, 1:200, 1:400, 1:800. The effect of these substances were compared with furacillin in a controlled study. The testing microbes used were gram positive bacteria Staphylococcus aureus, gram negative bacteria Pseudomonas aeruginosa and Escherichia coli and Candida albicans fungi were taken. The experiments used for this survey were meat-pentonlu agar (EPA) for cultivation of bacteria and Saburo environment for fungi. Each experiment used 1 ml of test solution on each plate 500 min. Add 2 drops of emulsified with microbes feel. All experimental samples were taken from the agar after 10, 20, 40, 60 minutes in the environment on the basis of Patrk planted. Bacteria were cultivated at a temperature of 37° C. for 1 day and the mushroom was kept in a thermostat for […] at a temperature of 28° C. Then results were checked.

Escherichia coli = assay: antimicrobial screening by agar dilution, E. coli
Procedure: as §1

Pseudomonas aeruginosa = assay: antimicrobial screening by agar dilution, Ps. aeruginosa
Procedure: as §1

Candida albicans = assay: antimicrobial screening by agar dilution, Candida albicans
Procedure: as §1

Measured: inhibition activity

CCCCCCn1c(-c2ccc(OC)c(OC)c2)nc(-c2ccc(Br)cc2)c1-c1ccc(Br)cc1 [4,5-bis(4-bromophenyl)-1-hexyl-2-(3,4-dimethoxyphenyl)-1H-imidazole]
highest inhibition activity: Staphylococcus aureus | Escherichia coli | Pseudomonas aeruginosa | Candida albicans

Reference: US11981641B1, “4,5-bis(4-bromophenyl)-1-hexyl-2-(3,4-dimethoxyphenyl)-1H-imidazole as an antimicrobial compound” (KING FAISAL UNIVERSITY, priority 2023, dated 2024)
